According to patent US20250084080A1, “CRYSTALLINE AND SALT FORMS OF AN NLRP3 INHIBITOR” (BioAge Labs, Inc., priority 2023, published 2025):

Key:
Assay type in all cases: physicochemical
[1] = Bulk stability (solid state, 1 week; HPLC, XRPD, IC, color); design: key to CL (color): A: no change of color; B: slight discoloration; C: medium discoloration; D: strong discoloration; details: for Bulk (HPLC) Purity / Bulk (XRPD) / CL (color) / Stoichiometry by IC (Free form:HCl = 1:x): Solid state
Method: Bulk stability of free form Pattern B was evaluated at 25° C./92.5% RH in an open container, at 40° C./75% RH in an open container and at 60° C. in a tight container over 1 week.

[2] = Solubility at 37° C. in buffers and biorelevant media, XRPD of residual solid; details: for solubility at 2 h / solubility at 24 h: thermodynamic from solid
Method: Solubility of BAL-0748 free form Pattern B was investigated in pH 1.2 HCl buffer, pH 4.5 50 mM acetate buffer, pH 6.8 50 mM phosphate buffer, water, pH 1.6 FaSSGF, pH 6.5 FaSSIF-v1, pH 5.0 FeSSIF-v1 and 2% HPMC+1% Pluronic F68 in pH 4.5 50 mM acetate buffer at 37° C. for 2 h and 24 h. Residual solids after the solubility test were analyzed by XRPD.
Solubility of the free form Pattern A, the HCl salt Pattern A, the phosphate salt Pattern A, and the sodium salt Pattern A was measured in pH 1.2 HCl buffer, pH 4.5 acetate buffer (50 mM), pH 6.8 phosphate buffer (50 mM), water, pH 1.6 FaSSGF, pH 6.5 FaSSIF-v1, pH 5.0 FeSSIF-v1, and 2% HPMC+1% Pluronic F68 in pH 4.5 acetate buffer (50 mM) at 37° C. for 2 hours and 24 hours.
10.4 mg of the free form Pattern A, 10.0 mg of the free form Pattern B, 10.8 mg of the HCl salt Pattern A, 12.2 mg of the phosphate salt Pattern A, or 10.5 mg of the sodium salt Pattern A was weighed into a 20 mL glass vial, respectively. 5 mL of solubility medium was added. The salt amount used was equivalent to 10 mg anhydrous free form. Obtained suspensions were stirred at 37° C. at 400 rpm and sampled at 2 hours and at 24 hours. The samples were centrifuged at 37° C. at 14,000 rpm for 5 min. Supernatants were analyzed by HPLC and PH meter for solubility and pH value, respectively. Residual solids (wet cakes) from the 24 hours samples were also characterized by XRPD to determine physical form.

[3] = Hygroscopicity by dynamic vapor sorption (DVS) at 25° C.; details: for Desorp. (%) / Sorp. (%): DVS 25° C.
Method: Dynamic vapor sorption (DVS) was performed on an Intrinsic, Advantage or Adventure with an oven temperature of 25° C. using water as a solvent. The sample mass was about 5-10 mg using the following method: • Cycle: 40-0-95-0-40% RH • Stage Step: 10% • Equilibrium: 0.002 dm/dt (%/min) • Minimum dm/dt stability duration: 60 min • Maximum dm/dt stage time: 360 min. Hygroscopicity of free form Pattern B was evaluated by dynamic vapor sorption (DVS) test at 25° C. […] It absorbed about 0.8% water at 80% RH at 25° C.

[4] = 25° C./92.5% RH open, 40° C./75% RH open, 60° C. tight container
[5] = aqueous buffer, pH 4.5 acetate buffer (50 mM), 37° C.
[6] = aqueous buffer, pH 6.8 phosphate buffer (50 mM), 37° C.
[7] = aqueous with cosolvent or surfactant or cyclodextrin, 2% HPMC + 1% Pluronic F68 in pH 4.5 acetate buffer (50 mM), 37° C.
[8] = fassgf or other biorelevant, FaSSGF, pH 1.6, 37° C.
[9] = simulated gastric fluid, pH 1.2 HCl buffer, 37° C.

SMILES: CCOc1cc(C(=O)N(C)Cc2cnc(CO)c3cn[nH]c23)ccc1-c1cc(F)cc(F)c1.Cl [HCl salt Pattern A, 2-ethoxy-3′,5′-difluoro-N-((4-(hydroxymethyl)-1H-pyrazolo[4,3-c]pyridin-7-yl)methyl)-N-methyl-[1,1′-biphenyl]-4-carboxamide hydrochloric acid salt]
- Bulk stability, chemical and physical [1, 4]: chemically and physically stable
- Degradation by HPLC [1, 4]: no obvious degradation
- Form change by XRPD [1, 4]: no form change
- Bulk (HPLC) Purity ([1]; 25° C./92.5% RH, open): 99.1%
- Bulk (XRPD) ([1]; 25° C./92.5% RH, open): No form change
- CL (color) ([1]; 25° C./92.5% RH, open): A
- Stoichiometry by IC (Free form:HCl = 1:x) ([1]; 25° C./92.5% RH, open): 0.97
- Bulk (HPLC) Purity ([1]; 40° C./75% RH, open): 98.9%
- Bulk (XRPD) ([1]; 40° C./75% RH, open): No form change
- CL (color) ([1]; 40° C./75% RH, open): A
- Stoichiometry by IC (Free form:HCl = 1:x) ([1]; 40° C./75% RH, open): 0.99
- Bulk (HPLC) Purity ([1]; 60° C., closed): 98.9%
- Bulk (XRPD) ([1]; 60° C., closed): No form change
- CL (color) ([1]; 60° C., closed): A
- Stoichiometry by IC (Free form:HCl = 1:x) ([1]; 60° C., closed): 0.97
- pH of supernatant at 24 h ([2]; 2% HPMC + 1% Pluronic F68 in pH 4.5 acetate buffer (50 mM), 37° C.): (4.4)
- Solubility compared with the free form Pattern A ([2]; 2% HPMC+1% Pluronic F68 in acetate buffer (pH 4.5)): comparable solubility
- pH of supernatant at 24 h ([2]; FaSSGF, pH 1.6, 37° C.): (1.5)
- pH of supernatant at 24 h ([2]; FaSSIF-v1, pH 6.5, 37° C.): (6.3)
- pH of supernatant at 24 h ([2]; FeSSIF-v1, pH 5.0, 37° C.): (4.9)
- pH of supernatant at 24 h ([2]; Water, 37° C.): (2.5)
- solubility at 2 h [2, 5]: 14.4 µg/mL
- solubility at 24 h [2, 5]: 10 µg/mL
- solubility at 2 h [2, 6]: 3.3 µg/mL
- solubility at 24 h [2, 6]: 2.3 µg/mL
- solubility at 2 h [2, 7]: 29.5 µg/mL
- solubility at 24 h [2, 7]: 26.7 µg/mL
- solubility at 2 h [2, 8]: 556 µg/mL
- solubility at 24 h [2, 8]: 522 µg/mL
- pH of supernatant at 24 h ([2]; pH 1.2 HCl buffer, 37° C.): (1.2)
- pH of supernatant at 24 h ([2]; pH 4.5 acetate buffer (50 mM), 37° C.): (4.3)
- Higher solubility compared with the free form Pattern A ([2]; pH 5.0 FeSSIF-v1, 2 h): 1 fold
- pH of supernatant at 24 h ([2]; pH 6.8 phosphate buffer (50 mM), 37° C.): (6.7)
- Solubility compared with the free form Pattern A ([2]; pure water): obviously higher solubility
- solubility at 2 h [2, 9]: 362 µg/mL
- solubility at 24 h [2, 9]: 277 µg/mL
- solubility at 2 h ([2]; FaSSIF-v1, pH 6.5, 37° C.): 11.8 µg/mL
- solubility at 24 h ([2]; FaSSIF-v1, pH 6.5, 37° C.): 8.4 µg/mL
- solubility at 2 h ([2]; FeSSIF-v1, pH 5.0, 37° C.): 238 µg/mL
- solubility at 24 h ([2]; FeSSIF-v1, pH 5.0, 37° C.): 151 µg/mL
- solubility at 2 h ([2]; Water, 37° C.): 568 µg/mL
- solubility at 24 h ([2]; Water, 37° C.): 504 µg/mL
- Desorp. (%) ([3]; 0% RH, 1st desorption): 0.51%
- Sorp. (%) ([3]; 0% RH, 1st sorption): 0.51%
- Desorp. (%) ([3]; 0% RH, 2nd desorption): 0.15%
- Sorp. (%) ([3]; 0% RH, 2nd sorption): 0.15%
- Desorp. (%) ([3]; 10% RH, 1st desorption): 0.61%
- Sorp. (%) ([3]; 10% RH, 1st sorption): 0.61%
- Desorp. (%) ([3]; 10% RH, 2nd desorption): 0.24%
- Sorp. (%) ([3]; 10% RH, 2nd sorption): 0.20%
- Desorp. (%) ([3]; 20% RH, 1st desorption): 0.65%
- Sorp. (%) ([3]; 20% RH, 1st sorption): 0.68%
- Desorp. (%) ([3]; 20% RH, 2nd desorption): 0.28%
- Sorp. (%) ([3]; 20% RH, 2nd sorption): 0.24%
- Desorp. (%) ([3]; 30% RH, 1st desorption): 0.69%
- Sorp. (%) ([3]; 30% RH, 1st sorption): 0.78%
- Desorp. (%) ([3]; 30% RH, 2nd desorption): 0.35%
- Sorp. (%) ([3]; 30% RH, 2nd sorption): 0.27%
- Desorp. (%) ([3]; 40% RH, 1st desorption): 0.72%
- Sorp. (%) ([3]; 40% RH, 1st sorption): 0.75%
- Desorp. (%) ([3]; 40% RH, 2nd desorption): 0.42%
- Sorp. (%) ([3]; 40% RH, 2nd sorption): 0.29%
- Sorp. (%) ([3]; 50% RH, 1st sorption): 0.80%
- Desorp. (%) ([3]; 50% RH, 2nd desorption): 0.54%
- Sorp. (%) ([3]; 60% RH, 1st sorption): 0.85%
- Desorp. (%) ([3]; 60% RH, 2nd desorption): 0.68%
- Sorp. (%) ([3]; 70% RH, 1st sorption): 0.96%
- Desorp. (%) ([3]; 70% RH, 2nd desorption): 0.84%
- Sorp. (%) ([3]; 80% RH, 1st sorption): 1.00%
- Desorp. (%) ([3]; 80% RH, 2nd desorption): 1.07%
- Sorp. (%) ([3]; 90% RH, 1st sorption): 1.37%
- Desorp. (%) ([3]; 90% RH, 2nd desorption): 1.54%
- Sorp. (%) ([3]; 95% RH, 1st sorption): 2.20%
- Desorp. (%) ([3]; 95% RH, 2nd desorption): 2.20%
- XRPD after DVS test ([3]; DVS at 25° C.): No form change
- Water absorbed at 80% RH ([3]; DVS at 25° C., 80% RH): It absorbed 1.0%
